Measurements taken from ChEMBL document CHEMBL1201862, “PubChem BioAssay data set” (2004).
Calls of active or inactive are those of the source. For most assays here, no stated cut-off is given here; in the data, actives have a measured EC50 and inactives only a lower limit.

Legend:
[1] = target: Glyceraldehyde-3-phosphate dehydrogenase (Homo sapiens, UniProt P04406)
[2] = target: T1, Heat shock factor protein 1 (Mus musculus, UniProt P38532); assay: HSF1 potentiators in luciferase reporter cells, confirmation, cell-based, NIH3T3, luminescence, dose retest (AID 435004); assay type: functional;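 further: stress induced by proteasome inhibitor MG132 added 30 min after compound; luciferase reporter driven by HSF1 response element in NIH3T3 cells; actives raise luminescence as potentiators of the MG132 stress response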
T1 sequence (P38532 whole entry): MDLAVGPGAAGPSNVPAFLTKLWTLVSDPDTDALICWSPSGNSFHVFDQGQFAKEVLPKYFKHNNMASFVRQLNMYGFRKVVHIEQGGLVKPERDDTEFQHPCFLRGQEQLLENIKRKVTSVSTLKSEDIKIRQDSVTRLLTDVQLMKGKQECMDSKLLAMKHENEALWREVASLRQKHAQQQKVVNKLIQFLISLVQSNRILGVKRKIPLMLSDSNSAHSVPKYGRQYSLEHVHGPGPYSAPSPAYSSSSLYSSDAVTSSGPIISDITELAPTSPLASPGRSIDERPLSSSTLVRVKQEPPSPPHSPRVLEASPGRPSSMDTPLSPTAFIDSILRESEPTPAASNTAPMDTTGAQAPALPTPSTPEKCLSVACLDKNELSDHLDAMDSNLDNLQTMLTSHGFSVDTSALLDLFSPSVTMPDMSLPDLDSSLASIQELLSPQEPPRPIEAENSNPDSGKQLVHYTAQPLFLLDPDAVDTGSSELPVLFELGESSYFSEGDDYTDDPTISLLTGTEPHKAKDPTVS

SN12K1 = assay: cells; assay type: functional; conditions: Homo sapiens
Streptokinase A = target: T2, Streptokinase A (Streptococcus pyogenes serotype M1, UniProt P10520); assay: S. pyogenes streptokinase expression inhibitors, potency, dose response, plasminogen activation absorbance, OD405 (AID 1914); assay type: functional, Streptococcus pyogenes M1 GAS;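 further: secreted streptokinase activity via plasminogen activation per viability signal from cell pellet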
T2 sequence (P10520 whole entry): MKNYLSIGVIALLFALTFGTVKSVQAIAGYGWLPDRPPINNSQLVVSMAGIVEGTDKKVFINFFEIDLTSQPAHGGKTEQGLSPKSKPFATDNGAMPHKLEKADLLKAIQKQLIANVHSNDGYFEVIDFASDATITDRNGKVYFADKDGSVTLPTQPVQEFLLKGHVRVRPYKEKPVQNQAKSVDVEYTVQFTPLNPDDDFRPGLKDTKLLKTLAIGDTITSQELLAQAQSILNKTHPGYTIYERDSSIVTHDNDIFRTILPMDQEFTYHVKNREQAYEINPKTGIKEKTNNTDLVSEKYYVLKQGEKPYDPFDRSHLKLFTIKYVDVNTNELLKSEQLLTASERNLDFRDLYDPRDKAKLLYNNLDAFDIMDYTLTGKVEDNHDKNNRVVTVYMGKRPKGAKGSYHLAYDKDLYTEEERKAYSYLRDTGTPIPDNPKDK

Streptococcus = assay: Group A Streptococcus viability loss, dose response, counter-screen for streptokinase expression inhibitor project, luminescence, BacTiterGlo (AID 1915); assay type: functional, organism-based;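 further: potency for reduction of bacterial viability or growth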
[3] = test system: Streptococcus sp. 'group A'; assay: growth inhibition of control SK(-) GAS strain, dose response, counter-screen for streptokinase expression inhibitor project, luminescence, kanamycin, BacTiterGlo, confirmation (AID 1900); assay type: functional, organism-based
Paired box protein Pax-8 = Paired box protein Pax-8 (Homo sapiens, UniProt Q06710); assay: inhibitors of PAX8-driven TPO luciferase reporter, dose response, RMG-I cells, cherry-pick (AID 687027); assay type: functional, cell-based;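 further: luciferase reporter driven by Pax8 target thyroperoxidase promoter measured by SteadyGlo luminescence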
[4] = Luminescence Cell-Based Dose Response HTS to Identify Inhibitors of 5'UTR Stem-Loop Driven Prion Protein mRNA Translation in H4 Neuroglioblastoma Cells. [Related pubchem assays: 1827 (Project Summary), 1813 (Primary HTS)]; assay type: functional
[5] = NIH-3T3 fibroblast cytotoxicity, dose response, cytotoxicity control, cell-based, fluorescence, Alamar Blue, secondary assay (AID 2327); assay type: functional;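 further: NIH-3T3 mouse fibroblasts cultured with fluconazole at 8 µg/mL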
[6] = inhibitors of firefly luciferase expression or activity, dose response, H4 neuroglioma cells, luminescence (AID 1990); assay type: functional, cell-based
[7] = C. albicans growth with fluconazole, confirmation, fluorescence, retest (AID 2467); assay type: functional, cell-based
[8] = inhibitors of SNCA 5'UTR-driven reporter translation, confirmation, H4 neuroglioma cells, luminescence (AID 1988); assay type: functional, cell-based
[9] = inhibitors of intracellular T. cruzi replication, confirmation, NIH3T3 host cells, beta-gal luminescence (AID 2044); assay type: functional, cell-based;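 further: intracellular parasites grown in NIH/3T3 mouse fibroblasts as host cells; luminescent beta-galactosidase reporter signal from transgenic T. cruzi replicating inside host cells; inhibitors lower the luminescence signal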
[10] = cytotoxicity toward NIH3T3 fibroblasts, dose response, counter-screen, cell-based, ATP luminescence, mouse fibroblasts (AID 2010); assay type: functional;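 further: cells exposed to compound for about 90 hours before reading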

Sequence of Paired box protein Pax-8 (Q06710 whole entry): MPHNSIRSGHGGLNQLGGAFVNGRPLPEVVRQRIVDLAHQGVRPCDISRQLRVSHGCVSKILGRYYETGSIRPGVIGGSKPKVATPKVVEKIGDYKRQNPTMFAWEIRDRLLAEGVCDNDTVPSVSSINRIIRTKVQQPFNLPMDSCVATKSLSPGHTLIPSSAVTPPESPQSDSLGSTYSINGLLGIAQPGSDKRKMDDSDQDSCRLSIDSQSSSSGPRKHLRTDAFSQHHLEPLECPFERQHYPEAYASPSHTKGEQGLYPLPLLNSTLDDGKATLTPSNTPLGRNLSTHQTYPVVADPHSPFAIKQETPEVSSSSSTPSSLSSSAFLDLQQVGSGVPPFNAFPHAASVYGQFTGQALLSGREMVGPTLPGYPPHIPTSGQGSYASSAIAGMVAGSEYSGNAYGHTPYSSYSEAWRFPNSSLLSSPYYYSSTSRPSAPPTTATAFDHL
Sequence of Glyceraldehyde-3-phosphate dehydrogenase (P04406 whole entry): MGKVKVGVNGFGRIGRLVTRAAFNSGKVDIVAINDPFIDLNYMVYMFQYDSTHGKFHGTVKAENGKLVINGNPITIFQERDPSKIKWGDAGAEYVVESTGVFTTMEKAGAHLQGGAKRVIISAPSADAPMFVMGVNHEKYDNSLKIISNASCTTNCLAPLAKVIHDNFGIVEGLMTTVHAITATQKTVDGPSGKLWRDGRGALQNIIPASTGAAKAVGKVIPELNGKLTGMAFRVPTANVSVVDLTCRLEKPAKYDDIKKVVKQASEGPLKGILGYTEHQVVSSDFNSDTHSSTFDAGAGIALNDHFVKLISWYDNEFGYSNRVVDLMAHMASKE

With COc1cccc(N2C(=O)C(Cl)=C(N3CCOCC3)C2=O)c1 the IC50 [1] was > 50 µM (inconclusive).
With CCCCOc1ccc(-c2nc(/C=N/c3nccs3)c(O)o2)cc1 the EC50 [2] was > 260 µM (inactive).
In the case of CN(C)CCNC(=O)c1cccc2ccc(-c3ccc(O)cc3)nc12, the GI50 (SN12K1) is reported as 637 nM (active).
In the case of COC(=O)c1cn(CCOc2ccc(C)cc2)c2ccccc12, the EC50 [2] is reported as > 260 µM (inactive).
With c1ccc(-c2csc3ncnc(N4CCc5ccccc5C4)c23)cc1 the EC50 (Streptokinase A) was 4.83 µM (active), the EC50 (Streptococcus) was 19.5 µM (active) and the EC50 [3] was 5.31 µM (active).
In the case of Cc1ccc(-n2c(O)cc(=O)nc2SCC(=O)Nc2ccc3c4c(cccc24)CC3)cc1, the EC50 (Streptokinase A) is reported as > 150 µM (not active), the EC50 (Streptococcus) is reported as > 150 µM (not active) and the EC50 [3] is reported as 28.4 µM (active).
In the case of Cc1ccc2c(O)nc(Nc3nc(C)cc(-c4ccccc4)n3)nc2c1, the EC50 (Streptokinase A) is reported as > 150 µM (not active), the EC50 (Streptococcus) is reported as 5.49 µM (active) and the EC50 [3] is reported as 7.26 µM (active).
For CCC(C)c1ccc(C2C3=C(O)c4ccccc4C3=Nc3nc(N)nc(O)c32)cc1 (centres undefined), the EC50 (Streptokinase A) was > 50 µM (not active), the EC50 (Streptococcus) was 8.57 µM (active) and the EC50 [3] was 3.11 µM (active).
With O=C1CC(C(=O)Nc2ccc(O)c(C(=O)O)c2)C(c2ccccc2)O1 (centres undefined) the IC50 [1] was > 100 µM (not active).
In the case of C[C@@H]1CCCCO[C@H](CN(C)C(=O)c2ccccc2)[C@@H](C)CN([C@@H](C)CO)C(=O)c2cc(NC(=O)Nc3ccc(C(F)(F)F)cc3)ccc2O1, the AC50 (Paired box protein Pax-8) is reported as 3.72 µM (active).
In the case of Cc1ccc(N2NC(=O)/C(=C/c3c(C)c(C#N)c4nc5ccccc5n4c3O)C2=O)cc1C, the IC50 [1] is reported as > 100 µM (not active).
With COc1cccc(C(=O)COC(=O)C(C)N2C(=O)C3C4C=CC(C4)C3C2=O)c1 (centres undefined) the EC50 [2] was > 260 µM (inactive).
For FC(F)(F)c1cccc(NC(=S)N2CCCC2)c1, the EC50 (Streptokinase A) was > 150 µM (not active), the EC50 (Streptococcus) was > 150 µM (not active) and the EC50 [3] was > 150 µM (not active).
For CC(=O)Nc1ncnc2c1c(-c1ccc(Cl)cc1)nn2C(C)(C)C, the EC50 [4] was 13.3 µM (active), the EC50 [5] was 36.2 µM (active) and the EC50 [6] was 11.4 µM (active). For the same compound, the EC50 [7] was 1.15 µM (active), the EC50 [8] was 10.2 µM (active) and the EC50 [9] was 140 nM (active). The EC50 [10] was 2.66 µM (active).
For CCn1nc(C)cc1C(=O)Sc1ccc(Cl)cc1Cl, the EC50 [2] was 14.9 µM (active).
In the case of CN(Cc1ccccc1)C(=O)c1cc(-c2ccc(Br)cc2)on1, the EC50 [2] is reported as 110 µM (active).
In the case of COc1ccc(C)cc1S(=O)(=O)Nc1cnc2ccccc2c1, the IC50 [1] is reported as > 100 µM (not active).
With CC(C)[C@H](NC(N)=O)C(=O)NNC(=O)COc1cccc(C(F)(F)F)c1 the EC50 [2] was > 260 µM (inactive).
In the case of COc1cccc(-c2nnc(SCc3nc4ccccc4[nH]3)n2N)c1, the EC50 [2] is reported as > 260 µM (inactive).
In the case of C[C@H](CO)N1C[C@H](C)[C@H](CN(C)Cc2ccc3c(c2)OCO3)OCCCC[C@H](C)Oc2ccc(NS(=O)(=O)c3ccc(Cl)cc3)cc2C1=O, the AC50 (Paired box protein Pax-8) is reported as 9.86 µM (active).
For COc1ccc(CN(C)C[C@H]2Oc3ccc(NC(=O)Nc4ccc5c(c4)OCO5)cc3CC(=O)N([C@H](C)CO)C[C@H]2C)cc1, the AC50 (Paired box protein Pax-8) was 62.3 µM (active).
With O=C(O)c1ccc(-c2nc(-c3ccc(Cl)c(Cl)c3)cs2)cc1 the EC50 [5] was > 160 µM (inactive), the EC50 [7] was 3.35 µM (active) and the EC50 (Streptococcus) was 6.62 µM (active). For the same compound, the EC50 [3] was 3.54 µM (active).
In the case of O=C(CN1C(=O)NC(Cc2c[nH]c3ccccc23)C1=O)Nc1cccc(S(=O)(=O)N2CCOCC2)c1 (centres undefined), the EC50 [2] is reported as > 260 µM (inactive).
For CN1C[C@@H]2[C@H](c3ccccc31)[C@H](CO)N2Cc1ccccc1Cl, the AC50 (Paired box protein Pax-8) was 50.5 µM (active).
For CCOC(=O)N1CCN(C(=O)c2cnc3n(c2=O)CCS3)CC1, the EC50 [2] was > 260 µM (inactive).
In the case of S=C(Nc1ccc(Cl)cc1)Nc1ccc2c(c1)OCCO2, the EC50 [5] is reported as > 150 µM (inactive) and the EC50 [7] is reported as > 38 µM (not active).
With C=CCN(C(=O)CCc1ccccc1OC)c1nc(-c2ccc(S(C)(=O)=O)cc2)cs1 the EC50 [2] was > 260 µM (inactive), the EC50 [9] was 1930 nM (active) and the EC50 [10] was 5.05 µM (active).
